From ChEMBL document CHEMBL4354795, “Amino Acid Scanning at P5' within the Bowman-Birk Inhibitory Loop Reveals Specificity Trends for Diverse Serine Proteases” (J Med Chem, 2019)
pIC50, pKi: −log10 of the molar value. Bridge positions count the residues as written; N and C are the ends. Peptide text beside a SMILES is read from it.

Key:
Kallikrein-5 [1] = biological target: T1, Kallikrein-5 (Homo sapiens, UniProt Q9Y337); assay: Inhibition of recombinant human KLK5 expressed in expressed in Pichia pastoris X-33 cells using Boc-VPR-MCA as susbtrate measured every 60 secs for 10 mins by fluorescence based assay
T1 sequence (Q9Y337 whole entry): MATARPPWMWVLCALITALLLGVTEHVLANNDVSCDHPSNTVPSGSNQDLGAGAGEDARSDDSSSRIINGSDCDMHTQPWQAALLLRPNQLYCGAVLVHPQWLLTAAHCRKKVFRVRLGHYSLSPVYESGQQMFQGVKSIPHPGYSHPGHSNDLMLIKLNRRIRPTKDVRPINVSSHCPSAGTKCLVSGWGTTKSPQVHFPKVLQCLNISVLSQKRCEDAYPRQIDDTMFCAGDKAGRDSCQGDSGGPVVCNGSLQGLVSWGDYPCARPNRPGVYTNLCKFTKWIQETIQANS

Kallikrein-7 [2] = biological target: T2, Kallikrein-7 (Homo sapiens, UniProt P49862); assay: Inhibition of recombinant human KLK7 expressed in expressed in Pichia pastoris X-33 cells using KHLY-pNA as susbtrate measured every 15 secs for 10 mins by colorimetric analysis
Target sequence in this assay (P49862 whole entry): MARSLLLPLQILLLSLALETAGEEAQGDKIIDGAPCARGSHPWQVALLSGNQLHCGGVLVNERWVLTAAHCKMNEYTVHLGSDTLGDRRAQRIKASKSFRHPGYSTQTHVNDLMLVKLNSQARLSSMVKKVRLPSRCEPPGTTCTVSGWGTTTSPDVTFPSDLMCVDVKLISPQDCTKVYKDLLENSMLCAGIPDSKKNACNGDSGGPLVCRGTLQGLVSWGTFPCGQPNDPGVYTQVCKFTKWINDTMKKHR

[3] = Inhibition of human cationic trypsin using Boc-VPR-MCA as susbtrate measured every 60 secs for 10 mins by fluorescence based assay
[4] = biological target: T3, Suppressor of tumorigenicity 14 protein (Homo sapiens, UniProt Q9Y5Y6); assay: Inhibition of recombinant human matriptase using Boc-QAR-MCA as susbtrate measured every 60 secs for 10 mins by fluorescence based assay
T3 sequence (Q9Y5Y6 whole entry): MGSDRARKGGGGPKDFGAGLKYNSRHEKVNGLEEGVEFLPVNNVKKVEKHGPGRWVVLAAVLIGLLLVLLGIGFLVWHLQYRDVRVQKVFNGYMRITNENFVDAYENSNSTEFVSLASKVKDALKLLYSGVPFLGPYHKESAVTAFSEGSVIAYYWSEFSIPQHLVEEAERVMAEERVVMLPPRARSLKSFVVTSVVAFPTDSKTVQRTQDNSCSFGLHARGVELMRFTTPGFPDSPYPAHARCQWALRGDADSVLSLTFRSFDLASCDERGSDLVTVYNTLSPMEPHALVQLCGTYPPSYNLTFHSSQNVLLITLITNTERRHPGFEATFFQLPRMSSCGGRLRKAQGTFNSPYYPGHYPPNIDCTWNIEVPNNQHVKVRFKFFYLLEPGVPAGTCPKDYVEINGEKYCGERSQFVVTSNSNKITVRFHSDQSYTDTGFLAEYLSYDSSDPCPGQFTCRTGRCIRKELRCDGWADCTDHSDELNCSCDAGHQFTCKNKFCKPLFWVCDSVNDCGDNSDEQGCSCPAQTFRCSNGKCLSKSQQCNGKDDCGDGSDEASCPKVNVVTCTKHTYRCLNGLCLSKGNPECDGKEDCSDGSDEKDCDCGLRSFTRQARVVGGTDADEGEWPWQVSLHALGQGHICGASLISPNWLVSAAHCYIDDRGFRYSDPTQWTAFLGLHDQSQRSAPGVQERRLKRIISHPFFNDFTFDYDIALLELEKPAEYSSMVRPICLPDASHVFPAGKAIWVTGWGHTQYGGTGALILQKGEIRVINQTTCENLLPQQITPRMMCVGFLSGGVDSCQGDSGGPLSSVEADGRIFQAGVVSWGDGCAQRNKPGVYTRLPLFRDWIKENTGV

Kallikrein-7 [5] = biological target: T2, Kallikrein-7; assay: Inhibition of recombinant human KLK7 expressed in expressed in Pichia pastoris X-33 cells at 10 uM using KHLY-pNA as susbtrate measured every 15 secs for 10 mins by colorimetric analysis relative to control
Target sequence in this assay (P49862 30-253 limits assumed): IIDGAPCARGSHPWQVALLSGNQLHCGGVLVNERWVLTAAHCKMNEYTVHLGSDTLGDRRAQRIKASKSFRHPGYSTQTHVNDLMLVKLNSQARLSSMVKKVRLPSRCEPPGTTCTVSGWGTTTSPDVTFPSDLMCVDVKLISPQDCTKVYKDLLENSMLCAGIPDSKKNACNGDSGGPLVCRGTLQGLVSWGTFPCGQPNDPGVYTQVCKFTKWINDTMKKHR

Homo sapiens = species on record: Homo sapiens; assay: Inhibition of human cationic trypsin at 10 uM using Boc-VPR-MCA as susbtrate measured every 60 secs for 10 mins by fluorescence based assay relative to control
[6] = biological target: T4, Suppressor of tumorigenicity 14 protein (Homo sapiens) (UniProt Q9Y5Y6); assay: Inhibition of recombinant human matriptase at 10 uM using Boc-QAR-MCA as susbtrate measured every 60 secs for 10 mins by fluorescence based assay relative to control
T4 sequence (whole entry): T3 sequence (Q9Y5Y6 whole entry)

Kallikrein-7 [7] = biological target: T2, Kallikrein-7; assay: Inhibition of recombinant KLK7 (unknown origin) expressed in Pichia pastoris X-33 cells using p-NA peptide as substrate measured every 10 secs for 300 secs by spectrophotometric analysis
Target sequence in this assay (P49862 whole entry): as the sequence (P49862 whole entry) above

Kallikrein-5 [8] = biological target: T1, Kallikrein-5; assay: Inhibition of recombinant KLK5 (unknown origin) expressed in Pichia pastoris X-33 cells using pNA peptide as susbtrate measured every 10 secs for 300 secs by spectrometric analysis
[9] = biological target: T3, Suppressor of tumorigenicity 14 protein; assay: Inhibition of recombinant human matriptase catalytic domain using Boc-QARAMC as substrate preincubated for 1 hr followed by substrate addition
Kallikrein-7 [10] = biological target: T2, Kallikrein-7; assay: Inhibition of recombinant human KLK7 expressed in expressed in Pichia pastoris X-33 cells at 5 uM using KHLY-pNA as susbtrate measured every 15 secs for 10 mins by colorimetric analysis relative to control
Target sequence in this assay (P49862 30-253 limits assumed): as the sequence (P49862 30-253 limits assumed) above

pKi (Kallikrein-5 [1]) | pIC50 (Kallikrein-7 [2]) | pIC50 [3] | pIC50 [4] | SMILES | also measured
9.14 |  |  |  | N=C(N)NCCC[C@@H]1NC(=O)[C@H](CC(N)=O)NC(=O)[C@@H]2CSSC[C@H](NC(=O)[C@H](CC(=O)O)NC(=O)[C@@H]3CCCN3C(=O)[C@@H]3CCCN3C(=O)[C@H](Cc3ccc(O)cc3)NC(=O)[C@H](CO)NC1=O)C(=O)N[C@@H](Cc1ccccc1)C(=O)N1CCC[C@H]1C(=O)N[C@@H](CC(N)=O)C(=O)NCC(=O)N[C@@H](Cc1ccc(O)cc1)C(=O)N2 (cyclo(CFPNGYCNRSYPPD); disulfide 1-7) | 
8.43 | < 5.00 | < 5.00 | < 5.00 | N=C(N)NCCC[C@@H]1NC(=O)[C@H](Cc2cnc[nH]2)NC(=O)[C@@H]2CSSC[C@H](NC(=O)[C@H](CCC(=O)O)NC(=O)[C@@H]3CCCN3C(=O)[C@@H]3CCCN3C(=O)[C@H](Cc3ccc(O)cc3)NC(=O)[C@H](CO)NC1=O)C(=O)N[C@@H](Cc1ccccc1)C(=O)N1CCC[C@H]1C(=O)N[C@@H](CC(N)=O)C(=O)NCC(=O)N[C@@H](Cc1ccccc1)C(=O)N2 (cyclo(CFPNGFCHRSYPPE); disulfide 1-7) | inhibition (Kallikrein-7 [5]): < 50%; inhibition (Homo sapiens): < 50%; inhibition [6]: < 50%
8.05 |  |  |  | N=C(N)NCCC[C@@H]1NC(=O)[C@H](Cc2cnc[nH]2)NC(=O)[C@@H]2CSSC[C@H](NC(=O)[C@H](CC(=O)O)NC(=O)[C@@H]3CCCN3C(=O)[C@@H]3CCCN3C(=O)[C@H](Cc3ccc(O)cc3)NC(=O)[C@H](CO)NC1=O)C(=O)N[C@@H](Cc1ccccc1)C(=O)N1CCC[C@H]1C(=O)N[C@@H](CC(N)=O)C(=O)NCC(=O)N[C@@H](Cc1ccccc1)C(=O)N2 (cyclo(CFPNGFCHRSYPPD); disulfide 1-7) | 
 |  |  |  | CC[C@H](C)[C@@H]1NC(=O)[C@@H]2CCCN2C(=O)[C@@H]2CCCN2C(=O)[C@H]([C@@H](C)CC)NC(=O)[C@H](CO)NC(=O)[C@H](CCCCN)NC(=O)[C@H]([C@@H](C)O)NC(=O)[C@@H]2CSSC[C@H](NC1=O)C(=O)N[C@@H](Cc1ccccc1)C(=O)N1CCC[C@H]1C(=O)N[C@@H](CC(N)=O)C(=O)NCC(=O)N[C@@H](CCCNC(=N)N)C(=O)N2 (cyclo(CFPNGRCTKSIPPI); disulfide 1-7) | pIC50 (Kallikrein-7 [7]): < 5.00; pKi (Kallikrein-5 [8]): 6.84; pKi [9]: 6.70
8.62 | < 5.30 | < 5.00 | < 5.00 | N=C(N)NCCC[C@@H]1NC(=O)[C@H](Cc2cnc[nH]2)NC(=O)[C@@H]2CSSC[C@H](NC(=O)[C@H](CCC(=O)O)NC(=O)[C@@H]3CCCN3C(=O)[C@@H]3CCCN3C(=O)[C@H](Cc3ccc(O)cc3)NC(=O)[C@H](CO)NC1=O)C(=O)N[C@@H](Cc1c[nH]c3ccccc13)C(=O)N1CCC[C@H]1C(=O)N[C@@H](CC(N)=O)C(=O)NCC(=O)N[C@@H](Cc1ccccc1)C(=O)N2 | inhibition (Kallikrein-7 [10]): < 50%
9.47 | < 5.00 | < 5.70 | < 5.00 | N=C(N)NCCC[C@@H]1NC(=O)[C@H](CC(N)=O)NC(=O)[C@@H]2CSSC[C@H](NC(=O)[C@H](CCC(=O)O)NC(=O)[C@@H]3CCCN3C(=O)[C@@H]3CCCN3C(=O)[C@H](Cc3ccc(O)cc3)NC(=O)[C@H](CO)NC1=O)C(=O)N[C@@H](Cc1ccccc1)C(=O)N1CCC[C@H]1C(=O)N[C@@H](CC(N)=O)C(=O)NCC(=O)N[C@@H](Cc1ccc(O)cc1)C(=O)N2 (cyclo(CFPNGYCNRSYPPE); disulfide 1-7) | 
